Source: patent US5576303A, “Energy-supplementing saccharide source and its uses” (priority 1993, dated 1996)
Where two headings read alike, the source gives them in different places.

Legend:
living bodies = settings: prior art; cited from earlier work
rabbits [1] = settings: rabbit
Method: (§1) A hydrous crystalline trehalose prepared by the method in Experiment 1-2 was dissolved in a refined water, and the resultant solution was membrane filtered, concentrated and recrystallized to obtain a pyrogen-free hydrous crystalline trehalose. The crystal thus obtained was dissolved in injectable distilled water into a 10 w/v % solution isotonic to rabbit blood as trehalose infusion. By using 6 rabbits, about 2-3 kg weight, the infusion was rapidly administered to their ear veins at a dose of one g/kg body weight within 1.5 min, followed by collecting their blood at a prescribed time interval, and subjecting the collected blood samples to the measurements of their sugar levels (glucose concentration (mg/dl)) and insulin levels (μU/ml). As a control, 5 w/v % glucose solution isotonic to rabbit blood was similarly administered to rabbit veins at a dose of 0.5 g/kg body weight. Each result was expressed by the mean value of the 6 rabbits, and the time courses of the blood sugar- and insulin-levels of the rabbits were respectively shown in FIGS. 3 and 4. In the figures, the solid- and dashed-lines mean the time courses of trehalose and insulin in rabbit blood, respectively.

rabbits [2] = settings: rabbit; for amount secreted in urine (in words): in vivo
[3] = Isotonicity to rabbit blood; format: physicochemical
Method: as §1

[4] = Digestion test in vitro (enzyme derived from rat small intestinal mucous membrane); format: in vitro ADME; settings: small intestinal mucosa enzyme, Tables 4 and 5, rat small intestinal enzyme, read-out: Decomposition rate
Method: (§2) By using a trehalose solution of a high-purity hydrous crystalline trehalose prepared by the method in Experiment 1-2, a digestion test of trehalose was carried out in vitro in accordance with the method as reported by K. Okada et al. in JOURNAL OF JAPANESE SOCIETY OF NUTRITION AND FOOD SCIENCE, Vol.43, No.1, pp.23-29 (1990). The digestibility of trehalose was evaluated based on the decomposition rate (%) calculated by the following equation: [formula]
As evident from the results in Table 4, trehalose was not substantially hydrolyzed by the enzyme derived from rat small intestinal mucous membrane. By using the rat enzyme, disaccharides were tested for their digestibility similarly as above.

[5] = cited from earlier work
amylases = settings: Japanese Patent Laid-Open No. 240,758/88; cited from earlier work
[6] = Digestion test in vitro (gastric acid); format: in vitro ADME; settings: Table 4, gastric acid, read-out: Decomposition rate
Method: as §2

human volunteers = experiment: Utilization test in vivo by oral administration (blood sugar and insulin levels)
Method: In accordance with the method reported by H. Atsuji et al. in Journal of Clinical Nutrition, Vol.41, No.2, pp.200-208 (1972), 30 g of a hydrous crystalline trehalose prepared by the method in Experiment 1-2 was dissolved in water into a 20 w/v % aqueous trehalose solution, and prescribed amounts of which were orally administered to 6 male volunteers, 26-31-year-old. The volunteers were let blood at a prescribed time interval, and each blood sample was measured its blood sugar level, i.e. glucose concentration (mg/dl) and insulin level (μU/ml). As a control, glucose was used. The results of both levels were the mean values of 6 volunteers. FIGS. 1 and 2 show the time courses of blood sugar- and insulin-levels, respectively. In the figures, the solid- and dashed-lines mean the time courses of trehalose and insulin, respectively.

[7] = Digestion test in vitro (salivary amylase); format: in vitro ADME; settings: Table 4, salivary amylase, read-out: Decomposition rate
Method: as §2

Acute toxicity test = format: in vivo; settings: mouse, in vivo; oral, mice; "the value was not so accurate"
Method: (§3) By using mice, trehalose was tested for its acute toxicity by orally administering it to the mice a hydrous crystalline trehalose prepared by the method in Experiment 1-2. […] Based on the result, the LD50 was 50 g/kg or higher, though the value was not so accurate.

mice = experiment: Acute toxicity test; format: in vivo; settings: oral
Method: as §3

[8] = Digestion test in vitro (pancreatic amylase); format: in vitro ADME; settings: Table 4, pancreatic amylase, read-out: Decomposition rate
Method: as §2

[9] = improper dose or route of administration; cited from earlier work
[10] = 20 w/v % aqueous solution, 6 male volunteers, mean

OC[C@@H](O)[C@@H](O[C@@H]1O[C@H](CO)[C@H](O)[C@H](O)[C@H]1O)[C@H](O)[C@@H](O)CO [lactitol]
metabolism and utilization by living bodies (living bodies): not readily metabolized and utilized by living bodies

O=C[C@H](O)[C@@H](O)[C@H](O)[C@H](O)CO [glucose, reference compound]
amount secreted in urine (in words) (rabbits [1]; in vivo): absolutely low
amount secreted in urine (in words) (rabbits [2]): absolutely low
concentration isotonic to rabbit blood [3]: 5 w/v %

OC[C@@H](O)[C@@H](O[C@H]1O[C@H](CO)[C@@H](O)[C@H](O)[C@H]1O)[C@H](O)[C@@H](O)CO [maltitol]
metabolism and utilization by living bodies (living bodies): not readily metabolized and utilized by living bodies

OC[C@H]1O[C@H](O[C@H]2[C@H](O)[C@@H](O)[C@H](O)O[C@@H]2CO)[C@H](O)[C@@H](O)[C@@H]1O (mixture of isomers) [Maltose]
metabolised [4]: 80.1%

OC[C@H]1O[C@@H](O[C@H]2[C@H](O)[C@@H](O)C(O)O[C@@H]2CO)[C@H](O)[C@@H](O)[C@H]1O (some centres unmarked) [Lactose]
metabolised [4]: 9.7%

OC[C@H]1O[C@@](CO)(O[C@H]2O[C@H](CO)[C@@H](O)[C@H](O)[C@H]2O)[C@@H](O)[C@@H]1O [Sucrose]
metabolised [4]: 25.1%
hydrolysis under acidic conditions [5]: readily hydrolyzed

OC[C@H]1O[C@H](OC[C@H]2OC(O)[C@H](O)[C@@H](O)[C@@H]2O)[C@H](O)[C@@H](O)[C@@H]1O (some centres unmarked) [Isomaltose]
metabolised [4]: 13.2%

OC[C@H]1O[C@H](O[C@H]2O[C@H](CO)[C@@H](O)[C@H](O)[C@H]2O)[C@H](O)[C@@H](O)[C@@H]1O [trehalose, O-α-D-glucopyranosyl α-D-glucopyranoside]
metabolism and utilization by living bodies (living bodies): not substantially assimilated and utilized by the body
hydrolysis, metabolism and utilization in vivo (rabbits [1]): readily hydrolyzed into glucose in vivo, metabolized and utilized by living bodies as energy source
amount secreted in urine (in words) (rabbits [1]; in vivo): absolutely low
dynamics of blood sugar- and insulin-levels against glucose (rabbits [1]; in vivo): tended to show a time lag
hydrolysis by amylases (amylases): not substantially hydrolyzed by amylases
metabolised [4]: 1.3%
degraded [6]: 0%
hydrolysis, metabolism and utilization in vivo (rabbits [2]): readily hydrolyzed into glucose in vivo, metabolized and utilized by the living bodies as energy source
amount secreted in urine (in words) (rabbits [2]): absolutely low
concentration isotonic to rabbit blood [3]: 10 w/v %
assimilation, metabolism and utilization (human volunteers): readily assimilated, metabolized and utilized by living bodies as energy source
time of maximum of blood sugar level after administration (human volunteers; [10]): 30 to 45 min
time of maximum of insulin level after administration (human volunteers; [10]): 30 to 45 min
dynamics of blood sugar- and insulin-levels against glucose (human volunteers; FIGS. 1 and 2): tended to show a time lag
metabolised [7]: 0%
LD50 (Acute toxicity test): ≥ 50000 mg/kg
toxicity (in words) (mice): relatively-low toxicity
mortality (mice; highest possible dose): no mouse died
metabolised [8]: 0%

OC[C@@H](O)[C@@H](O)[C@H](O)[C@@H](O)CO [sorbitol]
diarrhea [9]: may cause serious diarrhea

OC[C@@H](O)[C@H](O)[C@@H](O)CO [xylitol]
diarrhea [9]: may cause serious diarrhea

OC[C@H]1O[C@@H](O[C@H]2[C@H](O)[C@@H](O)C(O)O[C@@H]2CO)[C@H](O)[C@@H](O)[C@@H]1O (some centres unmarked) [Cellobiose]
metabolised [4]: 1.2%
